{"source": "patent US5541159A", "about": "“Calcitonin derivatives” (Sandoz Ltd., priority 1988, dated 1996)", "test_system": "ovulation", "test": "inhibition of ovulation in female rats (M. Marko and E. Fluckiger)", "assay_type": "in vivo", "settings": "s.c.", "protocol": "The LHRH antagonists of the invention, in particular the compounds of formula XI inhibit luteinizing hormone secretion, e.g. as indicated by an inhibition of ovulation in animals. This test is effected according to M. Marko and E. Fluckiger, Experientia 30, […] (1974).\nAdult female rats of the Ivanovas Wistar strain (Sprague Dawley, Iva: SDIV, 200-250 g) are kept under standard conditions: 14 h light (from 0.400 to 18.00 hours); 24° C.; 55-60% rel. humidity; food and water ad libitum. Animals with regular 4-day cycles are injected on proestrus day at 13.00 h with the compound to be tested, subcutaneously or by the oral route. The next day at 9:00 a.m. the rats are sacrified and ova counted on both Fallopian tubes with the aid of a dissecting microscope. Only when no eggs are found is ovulation considered to be inhibited. The mean number of eggs per ovulating rat in each treatment groups is also determined.", "data": [{"substance": "[N-Ac-DPhe(Cl)^1,2, DTrp^3,DAla^10 ]-LHRH", "values": [{"measurement": "ED50 inhibition of ovulation", "value": 0.08, "unit": "mg/kg"}]}]}
